The results in this text go back to ChEMBL document CHEMBL4431301, “The Medicinal Chemistry of Dengue Virus” (J Med Chem, 2016).

Series [1] concerns dengue virus type 2. The experiment in a line: Antiviral activity against Dengue virus 2 infected in BHK-pD2hRucPac cells assessed as reduction in virus replication after 72 hrs by renilla luciferase reporter gene assay. The class given is functional, organism-based.
A short description of series [2]: Inhibition of Dengue virus 2 16681 NS5 guanylation expressed in Escherichia coliBL21(DE3) cells after 4 hrs by coomassie blue staining based SDS-PAGE method. Set-up: species or system dengue virus type 2.
For the next series, the system named is dengue virus type 4. The series is described as follows: Antiviral activity against Dengue virus 4 infected in african green monkey Vero E6 cells assessed as inhibition of viral yield after 72 hrs by flow cytometry. The note with it: Vero C1008, 72 h. The class given is functional, organism-based.
A short description of series [3]: Drug uptake in C57BL/6 mouse spleen infected with Ebola virus at 3 mg/kg, iv administered 2 hrs prior to viral infection measured on day 2 and 5 post viral infection by mass spectrometry. The series is classed as ADME, organism-based. The settings on record: read-out: Drug uptake.
The test system of series [4] is dengue virus type 2. The experiment in a line: Antiviral activity against Dengue virus 2 infected in african green monkey Vero E6 cells assessed as inhibition of viral yield after 72 hrs by flow cytometry. The series is classed as functional, organism-based. The note with it: Vero C1008, 72 h. (A flow cytometer gives signals particle by particle.)
For series [5], the system named is dengue virus type 1. The experiment in a line: Antiviral activity against Dengue virus 1 infected in african green monkey Vero E6 cells assessed as inhibition of viral yield after 72 hrs by flow cytometry. The series is classed as functional, organism-based. The settings on record: Vero C1008, 72 h.
In a further series the test system is dengue virus type 3. The series is described as follows: Antiviral activity against Dengue virus 3 infected in african green monkey Vero E6 cells assessed as inhibition of viral yield after 72 hrs by flow cytometry. The settings on record: Vero C1008, 72 h. The class given is functional, organism-based.
A short description of series [6]: Drug uptake in C57BL/6 mouse kidney infected with Ebola virus at 3 mg/kg, iv administered 2 hrs prior to viral infection measured on day 2 and 5 post viral infection by mass spectrometry. The settings on record: read-out: Drug uptake. The series is classed as ADME, organism-based.
For series [7], the system named is West Nile virus. The experiment in a line: Antiviral activity against West Nile virus Kunjin preincubated for 30 mins with virus followed by cell infection for 2 hrs measured after 3 days by crystal violet staining based plaque reduction assay. The class given is functional, organism-based. For orientation: Plaque reduction counts the foci of infection that form in a cell layer.

Series [8] is described as follows: Selectivity index, ratio of CC50 for african green monkey Vero cells to EC50 for Dengue virus 2 NGC. The series is classed as toxicity. The note with it: read-out: Ratio CC50/EC50.
The subject of the next series is Yellow fever virus. The series is described as follows: Antiviral activity against Yellow fever virus 17D Vaccine preincubated for 30 mins with virus followed by cell infection for 2 hrs measured after 6 days by crystal violet staining based plaque reduction assay. The class given is functional, organism-based.
For series [9], the system named is dengue virus type 2. The series is described as follows: Antiviral activity against Dengue virus 2 NGC preincubated for 30 mins with virus followed by cell infection for 2 hrs measured after 5 days by immunostaining based plaque reduction assay. The series is classed as functional, organism-based.
In series [10] the test system is dengue virus type 2. The experiment in a line: Antiviral activity against Dengue virus 2 Taiwanese PL046 infected in BHK21 cells after 48 hrs by plaque assay. The class given is functional, organism-based. The note with it: Taiwanese PL046, BHK-21, 48 h.
Series [11] deals with dengue virus type 2. The series is described as follows: Antiviral activity against Dengue virus 2 S221 infected in ADE AG129 mouse model assessed as protection against viral infection at 20 to 100 mg/kg, po administered thrice daily for 7 days starting 1 hr prior to viral challenge measured for 10 days. The class given is functional.
The subject of series [12] is dengue virus type 2. The experiment in a line: Antiviral activity against Dengue virus 2 NGC infected in african green monkey Vero cells assessed as reduction in viral titer preincubated for 1 hr followed by viral infection measured after 5 days by immunoplaque assay. The series is classed as functional, organism-based.
Series [13] relates to dengue virus type 1. The experiment in a line: Antiviral activity against Dengue virus 1 Western Pacific 74 infected in african green monkey Vero cells assessed as reduction in viral replication after 48 hrs by luciferase reporter gene assay. The class given is functional, organism-based. The note with it: Western Pacific 74, Vero. Background: Reporter assays use an easily measured gene product as a stand-in for the process of interest.

The subject of series [14] is West Nile virus. The series is described as follows: Antiviral activity against West Nile virus 3356 infected in african green monkey Vero cells assessed as reduction in viral titer after 42 hrs by plaque assay. The note with it: West Nile virus, 3356, Vero. The series is classed as functional, organism-based.
The subject of series [15] is dengue virus type 2. The experiment in a line: Antiviral activity against Dengue virus 2 infected in BHK21 cells assessed after 3 to 5 days by crystal violet staining based plaque assay. The series is classed as functional, organism-based. The settings on record: BHK-21.
The test system of series [16] is dengue virus type 2. The experiment in a line: Antiviral activity against Dengue virus 2 infected in BHK21 cells assessed as reduction in virus replication after 24 hrs by renilla luciferase reporter gene assay. The class given is functional, organism-based. The settings on record: BHK-21, 24 h.
Series [17] can be described thus: Cytotoxicity against BHK21 cells after 24 hrs by CellTiter-Glo luminescent assay. The class given is cell-based, Mesocricetus auratus, BHK-21. The settings on record: hamster.
A short description of series [18]: Inhibition of biotinylated Imp-alpha/beta1 (unknown origin) binding to Dengue virus NS5 by alpha screen assay. Set-up: species or system Homo sapiens.
Series [19] relates to dengue virus type 1. The experiment in a line: Antiviral activity against Dengue virus 1 infected in human PBMC assessed as reduction in viral titer after 48 hrs preincubated with cells prior to ADE-mediated viral infection by plaque assay. The class given is functional, organism-based.
Series [20] deals with T1, Genome polyprotein (dengue virus type 2, UniProt P29990). The experiment in a line: Mixed noncompetitive inhibition of the Dengue virus 2 NS2B-NS3 protease expressed in Escherichia coli using Boc-GRR-AMC as substrate assessed as enzyme-inhibitor complex after 30 mins by spectrofluorometry.
Series [21] has as its target T1, Genome polyprotein. The series is described as follows: Mixed noncompetitive inhibition of the Dengue virus 2 NS2B-NS3 protease expressed in Escherichia coli using Boc-GRR-AMC as substrate assessed as enzyme-substrate-inhibitor complex after 30 mins by Michaelis-Menten plot analysis.

T1 sequence (P29990 1346-1475 limits assumed): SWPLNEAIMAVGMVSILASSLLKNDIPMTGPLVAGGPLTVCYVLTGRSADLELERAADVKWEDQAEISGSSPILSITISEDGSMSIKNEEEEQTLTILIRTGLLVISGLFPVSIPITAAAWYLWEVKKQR
T1 sequence (P29990 1476-2093 limits assumed): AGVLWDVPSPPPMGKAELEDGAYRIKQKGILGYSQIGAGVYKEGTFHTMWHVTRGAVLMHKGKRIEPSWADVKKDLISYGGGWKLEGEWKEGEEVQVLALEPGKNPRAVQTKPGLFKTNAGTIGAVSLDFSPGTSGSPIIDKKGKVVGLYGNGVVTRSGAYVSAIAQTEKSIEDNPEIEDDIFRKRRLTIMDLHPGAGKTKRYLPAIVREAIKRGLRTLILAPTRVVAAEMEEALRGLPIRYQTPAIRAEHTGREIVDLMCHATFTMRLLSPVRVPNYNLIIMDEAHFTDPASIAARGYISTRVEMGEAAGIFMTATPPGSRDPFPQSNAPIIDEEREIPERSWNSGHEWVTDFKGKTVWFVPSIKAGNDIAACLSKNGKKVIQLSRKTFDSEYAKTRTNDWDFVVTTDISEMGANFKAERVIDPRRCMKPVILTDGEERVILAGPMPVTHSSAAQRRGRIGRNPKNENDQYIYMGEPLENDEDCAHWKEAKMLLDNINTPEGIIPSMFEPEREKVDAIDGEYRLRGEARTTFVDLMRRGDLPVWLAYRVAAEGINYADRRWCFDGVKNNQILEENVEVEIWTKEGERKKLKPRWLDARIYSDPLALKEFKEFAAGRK

In general, EC50 refers to the concentration that produces a half-maximal response. What is called IC50 is the point on the concentration scale where inhibition reaches its midpoint. In the case of `CC(C)(C)c1ccc(/C=C2\SC(=S)N(CCC(=O)O)C2=O)cc1`, the EC50 with dengue virus type 2 [1] was determined as 30.8 µM. Also, in series [2], the IC50 turned out to be 7.3 µM.
Take `Cc1cc(NCCCN(C)C)c2ccc3c(ccc4c(NCCCN(C)C)cc(C)nc43)c2n1`: the EC50 in the series on dengue virus type 4, with dengue virus type 2 [4], with dengue virus type 1 [5] and with dengue virus type 3 was 0.4 to 0.9 µM in each case. In addition, the concentration at 2 h in series [3] amounted to 19500 ng/g; in series [6], 43100 ng/g.
On to `C/C(=N\Nc1ccccc1)c1sc(-c2cc(Cl)nc(Oc3ccc(Cl)cc3)c2)nc1C`, for which the values for the concentration for half-maximal inhibition (IC50) with West Nile virus [7], with Yellow fever virus and in the series with dengue virus type 2 [9] were 3.8 µM, 1.6 µM and 1.2 µM, respectively. Further, the selectivity ratio in [8] is greater than 83.
In the series with dengue virus type 2 [10], `CCCCCCCCCCN1[C@H](CO)[C@@H](O)[C@H](O)[C@H]1CNC(=O)C1Cc2ccccc21` (some centres undefined) showed a concentration giving a half-maximal response (EC50) of 4.7 µM.
For `OC[C@@H]1[C@@H](O)[C@H](O)[C@@H](O)CN1CCCCCCCCC1CCCO1` (some centres undefined), the Activity with dengue virus type 2 [11] came out at 100%. Also, the EC50 in the series with dengue virus type 2 [12] turned out to be 21.7 µM.
For `O=C(c1ccccc1)N1N=C(c2cccs2)CC1c1ccc(Cl)cc1` (centres undefined), the EC50 with dengue virus type 1 [13] turned out to be 17 µM; with West Nile virus [14] it was 28 µM.
A word on the CC50: it is the concentration at which the toxic effect on the cells reaches its halfway point. Turning to `CCN(CC)Cc1cc(Nc2ccnc3cc(Cl)ccc23)ccc1O` [AMODIAQUINE], the EC50 with dengue virus type 2 [15] turned out to be 1.08 µM; in the series on dengue virus type 2 [16], 7.41 µM. In addition, in series [17], the CC50 at 24 h stood at 52.1 µM.
In the case of `CC1=C(/C=C/C(C)=C/C=C/C(C)=C/C(=O)Nc2ccc(O)cc2)C(C)(C)CCC1` [FENRETINIDE], the IC50 in [18] was 1 to 1.5 µM. Further, in the series with dengue virus type 1 [19], the EC50 was 0.8 to 2.6 µM.
One may read the Ki as a dissociation constant, usually derived from enzyme kinetics or from competition with a known ligand. `O=C1Cc2ccc(F)cc2C[C@@H]1C1=Cc2ccc(F)cc2CC1`: the Ki at Genome polyprotein [20] was 7 µM; at Genome polyprotein [21] it was 15 µM.
